Test results taken from US20240368212A1, “SELECTIVE ISONITRILE INHIBITORS OF CYTOCHROME P450 SUBTYPES” (priority 2021, published 2024).
Entries after “also recorded” stand apart in the source; their conditions may differ. Read-outs that look alike come from different tables or passages of the source.

Columns and labels:
[1] = biological target: T1, CYP17A1 (Homo sapiens, UniProt P05093); assay: Ligand binding assay, UV-visible difference spectra titration; conditions: for spectroscopic evidence of binding to CYP17A1 (heme spectral shift): result in words
T1 sequence (P05093 1-508): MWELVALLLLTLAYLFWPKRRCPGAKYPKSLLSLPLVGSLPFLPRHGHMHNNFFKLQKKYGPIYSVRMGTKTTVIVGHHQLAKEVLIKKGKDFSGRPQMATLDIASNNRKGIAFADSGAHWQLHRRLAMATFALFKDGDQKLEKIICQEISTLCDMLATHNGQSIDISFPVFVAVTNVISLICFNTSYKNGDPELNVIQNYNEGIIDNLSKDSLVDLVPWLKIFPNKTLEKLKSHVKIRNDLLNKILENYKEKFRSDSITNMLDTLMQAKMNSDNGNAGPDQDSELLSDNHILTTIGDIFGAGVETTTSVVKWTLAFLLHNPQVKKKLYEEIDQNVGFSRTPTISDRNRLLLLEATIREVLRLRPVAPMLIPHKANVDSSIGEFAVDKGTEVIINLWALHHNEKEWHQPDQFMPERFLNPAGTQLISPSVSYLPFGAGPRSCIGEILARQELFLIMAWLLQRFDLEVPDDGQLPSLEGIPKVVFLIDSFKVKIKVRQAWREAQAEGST
Experimental: Ligand binding assays. (Adapted from DeVore, N M, et al. (2009). Drug Metabolism and Disposition, 37(6), 1319-1327.) Ligand interaction with the heme iron was evaluated by titrating ligands into a cuvette containing purified CYP17A1, CYP2D6, or CYP3A4 and measured using a UV-visible scanning spectrophotometer. […] Ligands dissolved in DMSO were added to the sample cuvette and an equal volume of DMSO to the reference cuvette. Difference spectra were recorded from 300-500 nm after equilibration of enzyme and ligand. Binding to the enzyme was measured as the difference in maximal and minimal absorbance: A387-A419 for pregnanolone and 3-formyl pregnanolone, and A435-A393 for 3-formyl pregnanolone-20-isonitrile with CYP17A1; A434-A414 for 3-formyl pregnanolone-20-isonitrile with CYP3A4 and CYP2D6. […] All data fitting was accomplished using GraphPad Prism 9.

[2] = biological target: CYP106A2 (Priestia megaterium, UniProt Q06069); assay: Optical difference spectrum titration of CYP106A2; type: binding, bacterial; conditions: result in words
CYP106A2, sequence (Q06069 whole entry): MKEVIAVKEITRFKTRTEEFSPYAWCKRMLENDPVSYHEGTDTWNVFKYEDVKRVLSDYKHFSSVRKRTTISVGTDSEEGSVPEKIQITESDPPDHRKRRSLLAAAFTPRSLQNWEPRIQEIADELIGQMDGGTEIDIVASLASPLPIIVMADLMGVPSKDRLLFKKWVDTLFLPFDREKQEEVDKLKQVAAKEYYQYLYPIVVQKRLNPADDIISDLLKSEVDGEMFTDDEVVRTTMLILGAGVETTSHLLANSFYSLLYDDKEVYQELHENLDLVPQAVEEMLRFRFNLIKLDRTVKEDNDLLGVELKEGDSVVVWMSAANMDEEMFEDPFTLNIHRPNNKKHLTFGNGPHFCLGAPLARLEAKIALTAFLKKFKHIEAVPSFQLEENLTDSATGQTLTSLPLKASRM
Description: FIGS. 3A-3C show the optical difference spectra when various compounds are titrated with CYPs. […] The maximum absorbance was at 430 nm and the trough was at 393 nm. […] The trough was at 418 nm.
Ligand binding assays. […] All data fitting was accomplished using GraphPad Prism 9.

[3] = biological target: T2, CYP17A1 (Homo sapiens, UniProt P05093); assay: Inhibition assay, 17α-hydroxylation of progesterone by CYP17A1; type: biochemical
T2 sequence (P05093 24-508 limits assumed): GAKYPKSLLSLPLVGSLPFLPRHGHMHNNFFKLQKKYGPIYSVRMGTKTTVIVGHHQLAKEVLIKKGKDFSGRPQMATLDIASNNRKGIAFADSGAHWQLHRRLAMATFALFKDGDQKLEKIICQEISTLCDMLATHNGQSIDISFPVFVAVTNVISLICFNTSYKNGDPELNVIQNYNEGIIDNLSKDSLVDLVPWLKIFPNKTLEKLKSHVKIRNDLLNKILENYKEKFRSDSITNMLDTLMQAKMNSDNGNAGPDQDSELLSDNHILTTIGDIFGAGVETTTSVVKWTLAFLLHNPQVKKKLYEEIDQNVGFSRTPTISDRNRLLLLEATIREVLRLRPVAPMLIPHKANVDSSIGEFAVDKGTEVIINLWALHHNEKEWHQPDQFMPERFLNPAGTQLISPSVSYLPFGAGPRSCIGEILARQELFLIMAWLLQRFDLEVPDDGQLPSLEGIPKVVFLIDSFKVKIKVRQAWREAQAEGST
Experimental: (Adapted from DeVore, NM, Scott, EE. (2012). Nature, 482(7383), 116-119.) Metabolic activity of CYP17A1 was evaluated by measuring 17α-hydroxylation of progesterone as detected HPLC with UV detection at 240 nm. A 1:4 ratio of CYP17A1 to recombinant NADPH-cytochrome P450 reductase was mixed and incubated on ice for 20 minutes. […] Reaction vials were warmed to 37° C. for three minutes, then catalysis was initiated by adding NADPH to a final concentration of 1 mM. After 10 minutes, metabolism was quenched by adding 300 μL of 20% trichloroacetic acid and placed on ice. The reaction vials were centrifuged to pellet the precipitated protein, then the supernatant was injected onto a C18 column (Phenomenex, Luna, 50×4.6 mm) for HPLC. The 30-minute HPLC method ran at 0.8 m/min and started with a mobile phase of 60% acetonitrile, 40% water with 0.2% acetic acid for five minutes, increased to 80% acetonitrile over 10 minutes, held at 80% acetonitrile for five minutes, 100% acetonitrile for five minutes, then returned to 60% acetonitrile to prepare for the next sample. Metabolite elution was normalized to β-estradiol as an internal standard. A standard curve of known product concentrations was used to convert normalized area under curve to amount of product produced. […]

Molecule	spectroscopic evidence of binding to CYP17A1 (heme spectral shift) [1]	spectroscopic evidence of binding to CYP106A2 (Fe—CN—R bond formation) [2]	spectroscopic evidence of binding to CYP106A2 (Fe—CN—R bond formation) ([2]; listed as 3)	Kd [1] [µM]	IC50 ([3]; CYP17A1 progesterone hydroxylation, 11.5 μM progesterone) [µM]	inhibition of CYP17A1 progesterone hydroxylation ([3]; result in words, FIG. 5B)	Kd ([1]; CYP17A1 0.2 μM, tight binding, only estimates, read-out: Kd) [µM]
3β-formyl-(R)-(20-isonitrilo)pregnane [20-(R)-16]	binds tightly	no evidence for formation of a Fe—CN—R bonded complex	no evidence of binding				
[C-]#[N+][C@H](C)[C@H]1CC[C@H]2[C@@H]3CC[C@H]4C[C@@H](OC=O)CC[C@]4(C)[C@H]3CC[C@]12C [Compound 16]	induced the expected heme spectral shift from 417 to 428 nm; also recorded: bound to CYP17A1; also recorded: bind very tightly			< 0.1	1.3	inhibited	
C[C@]12CC[C@H](O)CC1=CC[C@@H]1[C@@H]2CC[C@]2(C)C(c3cccnc3)=CC[C@@H]12 [abiraterone, reference compound]							< 0.1
